Data from patent publication US6914045B2, “Glycopeptide antibiotics” (Wyeth Holdings Corporation, priority 2001, dated 2005).
≈ marks a conversion by molar mass, not a printed value. Blank lines part the entries; values can stand above or below the compound they belong to.

Columns and labels:
[1] = tested on: Staphylococcus aureus-SMITH (GC 4543); experiment: acute lethal infection in mice; type: in vivo; settings: acute lethal infection, female CD-1 mice, intraperitoneal challenge, intravenous 30 min. after infection, 7 day survival
Method: Methods for in Vivo Antibacterial Evaluation
The therapeutic effects of glycopeptide antibiotics of Formula I are determined against acute lethal infections with S. aureus (strain Smith), a penicillin resistant strain of S. pneumoniae (strain GC 1894), and a vancomycin resistant strain of E. fecalis (strain GC 6189 and GC 2246). Female mice, CD-1 (Charles River Laboratories), 20+/−2 gm, are challenged by intraperitoneal injection of sufficient bacteria (suspended in /trypticase Soy Broth or hog gastric mucin) to kill non-treated controls within 24-48 hr. Antibacterial agents, contained in 0.2 mL of saline or 5% dextrose solution, are administered intravenously 30 min. after infection. Five mice are treated at each dose level. The 7 day survival ratios from 3 separate tests are pooled for calculation of median effective dose (ED50).

Enterococcus sp. = experiment: in vitro antibacterial evaluation, MIC by broth dilution; type: cell-based; settings: broth dilution, 18 hours at 35° C.
In short: (§1)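 Broth dilution per NCCLS M7-A2 in Mueller-Hinton II medium, inoculum 5×10^5 CFU/mL, antibiotic range 64-0.06 μg/mL. MIC taken as lowest concentration inhibiting growth; Gram-positive panel includes recent clinical isolates resistant to methicillin, penicillin and/or vancomycin.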

Staphylococcus sp. = experiment: as above; type: cell-based; settings: broth dilution, 18 hours at 35° C.; for MIC Staphylococcus aureus (ATCC 29213): strain ATCC 29213; for MIC Staphylococcus aureus (GC 1131): strain GC 1131
In short: as §1

Escherichia coli = experiment: as above; type: cell-based; settings: 18 hours at 35° C.
In short: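 Broth dilution MIC per NCCLS M7-A2 in Mueller-Hinton II medium, inoculum 5×10^5 CFU/mL, antibiotic range 64-0.06 μg/mL. MIC taken as lowest concentration inhibiting growth.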

[2] = anatomic pathology (histopathology of heart and kidney) in mice; type: in vivo; settings: CD-1 mice, 20 mg/kg intravenously daily for 9 days, necropsy day 10, microscopic histopathology
Method: Samples of tissues from necropsied mice were formalin-fixed, paraffin-embedded, sectioned, stained with hematoxylin and eosin, and examined microscopically. Histopathologic findings were recorded. These findings were subjectively graded on a scale corresponding to slight, mild, moderate, marked and severe as compared to untreated controls.

Streptococcus sp. = experiment: in vitro antibacterial evaluation, MIC by broth dilution; type: cell-based; settings: broth dilution, 18 hours at 35° C.
In short: as §1

[3] = Enterococcus faecalis (ATCC 29212)
[4] = Enterococcus faecalis (GC 4552)

SMILES: CCCCCC(=O)OCC1OC(OC2C(CO)OC(Oc3ccc(CC4NC(=O)C(C(C)c5ccccc5)NC(=O)CNC(=O)C(CO)NC(=O)C(C(O)C5CNC(=N)N5C5OC(CO)C(O)C(O)C5O)NC(=O)C(C(O)C5CNC(=N)N5)NC4=O)cc3)C(O)C2O)C(O)C(O)C1O (stereo not drawn) [Example 95b, Cyclo[glycyl-β-methylphenylalanyl-O-[4-O-(6-O-hexanoylhexopyranosyl)hexopyranosyl]-tyrosyl-3-(2-iminoimidazolidin-4-yl)seryl-3-(3-hexopyranosyl-2-iminoimidazolidin-4-yl)-serylseryl]]
median effective dose (ED50), Staphylococcus aureus-SMITH (GC 4543) [1]: 4 mg/kg
MIC Enterococcus faecalis (ATCC 29212) (Enterococcus sp.; [3]): 4 µg/mL (≈ 2.87 µM)
MIC Enterococcus faecalis (GC 4552) (Enterococcus sp.; [4]): 8 µg/mL (≈ 5.74 µM)
MIC Enterococcus faecalis (ATCC 29212) (Enterococcus sp.): 4 µg/mL (≈ 2.87 µM)
MIC Enterococcus faecalis (GC 2242) (Enterococcus sp.): 8 µg/mL (≈ 5.74 µM)
MIC Enterococcus faecalis (GC 4552) (Enterococcus sp.): 8 µg/mL (≈ 5.74 µM)
MIC Enterococcus faecalis (GC 2242) (Enterococcus sp.; strain GC 2242): 8 µg/mL (≈ 5.74 µM)
MIC Coagulase Negative Staphylococcus (GC 4537) (Staphylococcus sp.): 2 µg/mL (≈ 1.44 µM)
MIC Coagulase Negative Staphylococcus (GC 4538) (Staphylococcus sp.): 1 µg/mL (≈ 0.718 µM)
MIC Coagulase Negative Staphylococcus (GC 4547) (Staphylococcus sp.): 1 µg/mL (≈ 0.718 µM)
MIC Staphylococcus aureus (ATCC 29213) (Staphylococcus sp.): 1 µg/mL (≈ 0.718 µM)
MIC Staphylococcus aureus (GC 1131) (Staphylococcus sp.): 1 µg/mL (≈ 0.718 µM)
MIC Staphylococcus aureus (GC 4535) (Staphylococcus sp.; strain GC 4535): 2 µg/mL (≈ 1.44 µM)
MIC Staphylococcus aureus-SMITH (GC 4536) (Staphylococcus sp.; strain GC 4536): 1 µg/mL (≈ 0.718 µM)
MIC Coagulase Negative Staphylococcus (GC 4537) (Staphylococcus sp.; strain GC 4537): 2 µg/mL (≈ 1.44 µM)
MIC Coagulase Negative Staphylococcus (GC 4538) (Staphylococcus sp.; strain GC 4538): 1 µg/mL (≈ 0.718 µM)
MIC Coagulase Negative Staphylococcus (GC 4547) (Staphylococcus sp.; strain GC 4547): 1 µg/mL (≈ 0.718 µM)
MIC Escherichia coli (GC 4559) (Escherichia coli): 64 µg/mL (≈ 45.9 µM)
MIC Escherichia coli (GC 4560) (Escherichia coli): <0.5 µg/mL

MIC Enterococcus avium (GC 4558) (Enterococcus sp.; Enterococcus avium (GC 4558)): 64 µg/mL (≈ 44.6 µM)
MIC Enterococcus faecalis (ATCC 29212) (Enterococcus sp.; [3]): 128 µg/mL (≈ 89.2 µM)
MIC Enterococcus faecalis (GC 4552) (Enterococcus sp.; [4]): 128 µg/mL (≈ 89.2 µM)
MIC Enterococcus faecalis (GC 4553) (Enterococcus sp.; Enterococcus faecalis (GC 4553)): 128 µg/mL (≈ 89.2 µM)
MIC Enterococcus faecalis (GC 4554) (Enterococcus sp.; Enterococcus faecalis (GC 4554)): >128 µg/mL
MIC Enterococcus faecalis (GC 6189) (Enterococcus sp.; Enterococcus faecalis (GC 6189)): 128 µg/mL (≈ 89.2 µM)
MIC Enterococcus faecium (GC 2243) (Enterococcus sp.; Enterococcus faecium (GC 2243)): >128 µg/mL
MIC Enterococcus faecium (GC 4556) (Enterococcus sp.; Enterococcus faecium (GC 4556)): >128 µg/mL
MIC Enterococcus faecium (GC 4557) (Enterococcus sp.; Enterococcus faecium (GC 4557)): 128 µg/mL (≈ 89.2 µM)
MIC Enterococcus avium (GC 4558) (Enterococcus sp.): 64 µg/mL (≈ 44.6 µM)
MIC Enterococcus faecalis (ATCC 29212) (Enterococcus sp.): 128 µg/mL (≈ 89.2 µM)
MIC Enterococcus faecalis (GC 2242) (Enterococcus sp.): 128 µg/mL (≈ 89.2 µM)
MIC Enterococcus faecalis (GC 2691) (Enterococcus sp.): 128 µg/mL (≈ 89.2 µM)
MIC Enterococcus faecalis (GC 3059) (Enterococcus sp.): 128 µg/mL (≈ 89.2 µM)
MIC Enterococcus faecalis (GC 4552) (Enterococcus sp.): 128 µg/mL (≈ 89.2 µM)
MIC Enterococcus faecalis (GC 4553) (Enterococcus sp.): 128 µg/mL (≈ 89.2 µM)
MIC Enterococcus faecalis (GC 4554) (Enterococcus sp.): >128 µg/mL
MIC Enterococcus faecalis (GC 6189) (Enterococcus sp.): 128 µg/mL (≈ 89.2 µM)
MIC Enterococcus faecium (GC 2243) (Enterococcus sp.): >128 µg/mL
MIC Enterococcus faecium (GC 4556) (Enterococcus sp.): >128 µg/mL
MIC Enterococcus faecium (GC 4557) (Enterococcus sp.): 128 µg/mL (≈ 89.2 µM)
MIC Enterococcus faecalis (GC 2242) (Enterococcus sp.; strain GC 2242): 128 µg/mL (≈ 89.2 µM)
MIC Enterococcus faecalis (GC 2691) (Enterococcus sp.; strain GC 2691): 128 µg/mL (≈ 89.2 µM)
MIC Enterococcus faecalis (GC 3059) (Enterococcus sp.; strain GC 3059): 128 µg/mL (≈ 89.2 µM)
MIC Staphylococcus aureus (ATCC 29213) (Staphylococcus sp.): >128 µg/mL
MIC Staphylococcus aureus (GC 1131) (Staphylococcus sp.): >128 µg/mL
MIC Staphylococcus aureus (GC 3051) (Staphylococcus sp.; strain GC 3051): >128 µg/mL
MIC Staphylococcus aureus (GC 3053) (Staphylococcus sp.; strain GC 3053): >128 µg/mL
MIC Staphylococcus aureus (GC 4541) (Staphylococcus sp.; strain GC 4541): >128 µg/mL
MIC Staphylococcus aureus (GC 4542) (Staphylococcus sp.; strain GC 4542): >128 µg/mL
MIC Staphylococcus aureus-SMITH (GC 4543) (Staphylococcus sp.; strain GC 4543): >128 µg/mL
MIC Staphylococcus aureus (GC 4544) (Staphylococcus sp.; strain GC 4544): >128 µg/mL
MIC Staphylococcus aureus (GC 4545) (Staphylococcus sp.; strain GC 4545): >128 µg/mL
MIC Coagulase Negative Staphylococcus (GC 4547) (Staphylococcus sp.; strain GC 4547): 128 µg/mL (≈ 89.2 µM)
MIC Coagulase Negative Staphylococcus (GC 4548) (Staphylococcus sp.; strain GC 4548): >128 µg/mL
MIC Coagulase Negative Staphylococcus (GC 4549) (Staphylococcus sp.; strain GC 4549): >128 µg/mL
MIC Coagulase Negative Staphylococcus (GC 4551) (Staphylococcus sp.; strain GC 4551): >128 µg/mL
MIC Coagulase Negative Staphylococcus (GC 6257) (Staphylococcus sp.; strain GC 6257): >128 µg/mL
MIC Streptococcus agalactiae (GC 4564) (Streptococcus sp.): 128 µg/mL (≈ 89.2 µM)
MIC Streptococcus pneumoniae (ATCC 6301) (Streptococcus sp.): 128 µg/mL (≈ 89.2 µM)
MIC Streptococcus pneumoniae (GC 1894) (Streptococcus sp.): 64 µg/mL (≈ 44.6 µM)
MIC Streptococcus pneumoniae (GC 4565) (Streptococcus sp.): 128 µg/mL (≈ 89.2 µM)
MIC Streptococcus pyogenes (GC 4563) (Streptococcus sp.): 128 µg/mL (≈ 89.2 µM)
MIC Streptococcus pneumoniae (ATCC 6301) (Streptococcus sp.; strain ATCC 6301): 128 µg/mL (≈ 89.2 µM)
MIC Streptococcus pneumoniae (GC 1894) (Streptococcus sp.; strain GC 1894): 64 µg/mL (≈ 44.6 µM)
MIC Streptococcus pyogenes (GC 4563) (Streptococcus sp.; strain GC 4563): 128 µg/mL (≈ 89.2 µM)
MIC Streptococcus agalactiae (GC 4564) (Streptococcus sp.; strain GC 4564): 128 µg/mL (≈ 89.2 µM)
MIC Streptococcus pneumoniae (GC 4565) (Streptococcus sp.; strain GC 4565): 128 µg/mL (≈ 89.2 µM)
MIC Escherichia coli (ATCC 25922) (Escherichia coli): >128 µg/mL
MIC Escherichia coli (GC 4559) (Escherichia coli): >128 µg/mL
MIC Escherichia coli (GC 4560) (Escherichia coli): 32 µg/mL (≈ 22.3 µM)
SMILES: CC(c1ccccc1)C1NC(=O)CNC(=O)C(CO)NC(=O)C(C(O)C2CN(Cc3ccc4ccccc4c3)C(=N)N2C2OC(CO)C(O)C(O)C2O)NC(=O)C(C(O)C2CNC(=N)N2)NC(=O)C(Cc2ccc(OC3OC(CO)C(OC4OC(CO)C(O)C(O)C4O)C(O)C3O)cc2)NC1=O (stereo not drawn) [Example 67, Cyclo[glycyl-β-methylphenylalanyl-O-(4-O-hexopyranosylhexoyranosyl)tyrosyl-3-(2-iminoimidazolidin-4-yl)seryl-3-[3-hexopyranosyl-2-imino-1-(2-naphthylmethyl)-imidazolidin-4-yl]-serylseryl]]
Anatomical Pathology (Day 10), Heart [2]: 0
Anatomical Pathology (Day 10), Kidney [2]: 0
MIC Staphylococcus haemolyticus (GC 4546) (Staphylococcus sp.; strain GC 4546): >128 µg/mL
